The test system of test [1] is BRCA1 mRNA expression in MDA-MB-231 cells. As to the kind of experiment: qRT-PCR assay: BRCA1 mRNA expression in MDA-MB-231. The settings on record: Homo sapiens, MDA-MB-231, Inhibition of BRCA1 mRNA expression in MDA-MB-231 cells; median; read-out: RTqPCR-MDA-MB-231, IC50, BRCA1 (median). Format: cell-based, human. Put shortly: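 Cells were seeded at 200,000 cells/well, left 24 h, then exposed continuously to test substances for 24 h. Total RNA (600 ng) was reverse-transcribed to cDNA and amplified by qPCR, and transcript levels were normalised to GAPDH housekeeping expression.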
For orientation: Quantitative PCR measures a nucleic acid by following its amplification.

Test [2] addresses T1, CYCLIN K (nuclear staining in CAL-120 cells) (Homo sapiens, UniProt O75909).
T1 construct: endogenous in cells; host or cells: CAL-120 human breast cancer cells (DSMZ ACC 459)
Nature of the test: CYCLIN K nuclear protein level: immunofluorescence high content analysis (CAL-120). Format: cell-based. Particulars: 24 h, 50% reduction of nuclear CCNK staining intensity, median, read-out: CYCLIN K degradation IF, DC50-[mol/l] (median). The procedure, abridged: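 CAL-120 breast cancer cells treated in dose-response for 24 h at 37 °C, PFA-fixed and immunostained for cyclin K with Hoechst counterstain. Confocal imaging quantified nuclear intensity; DC50 is the concentration giving 50% reduction of nuclear CCNK staining, normalized to DMSO and control.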

By IC50 is commonly meant the concentration that gives 50% inhibition.

T1 sequence (O75909 whole entry): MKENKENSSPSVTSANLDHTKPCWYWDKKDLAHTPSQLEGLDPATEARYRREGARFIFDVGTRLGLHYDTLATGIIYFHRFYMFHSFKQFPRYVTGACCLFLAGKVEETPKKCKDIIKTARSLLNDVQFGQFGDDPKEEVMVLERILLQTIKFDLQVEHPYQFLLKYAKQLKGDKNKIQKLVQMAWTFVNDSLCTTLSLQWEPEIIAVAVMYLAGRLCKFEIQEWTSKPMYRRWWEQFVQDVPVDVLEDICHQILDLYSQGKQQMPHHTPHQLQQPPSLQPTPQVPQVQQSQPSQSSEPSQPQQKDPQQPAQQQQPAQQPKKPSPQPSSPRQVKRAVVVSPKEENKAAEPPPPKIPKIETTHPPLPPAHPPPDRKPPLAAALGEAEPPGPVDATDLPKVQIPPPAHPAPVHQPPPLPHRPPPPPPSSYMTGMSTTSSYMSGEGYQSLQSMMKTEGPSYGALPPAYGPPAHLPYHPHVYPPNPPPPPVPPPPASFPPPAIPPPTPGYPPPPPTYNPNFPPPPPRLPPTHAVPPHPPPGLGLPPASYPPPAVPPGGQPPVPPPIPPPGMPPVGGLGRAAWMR
T1 sequence (Q9NYV4 whole entry partner): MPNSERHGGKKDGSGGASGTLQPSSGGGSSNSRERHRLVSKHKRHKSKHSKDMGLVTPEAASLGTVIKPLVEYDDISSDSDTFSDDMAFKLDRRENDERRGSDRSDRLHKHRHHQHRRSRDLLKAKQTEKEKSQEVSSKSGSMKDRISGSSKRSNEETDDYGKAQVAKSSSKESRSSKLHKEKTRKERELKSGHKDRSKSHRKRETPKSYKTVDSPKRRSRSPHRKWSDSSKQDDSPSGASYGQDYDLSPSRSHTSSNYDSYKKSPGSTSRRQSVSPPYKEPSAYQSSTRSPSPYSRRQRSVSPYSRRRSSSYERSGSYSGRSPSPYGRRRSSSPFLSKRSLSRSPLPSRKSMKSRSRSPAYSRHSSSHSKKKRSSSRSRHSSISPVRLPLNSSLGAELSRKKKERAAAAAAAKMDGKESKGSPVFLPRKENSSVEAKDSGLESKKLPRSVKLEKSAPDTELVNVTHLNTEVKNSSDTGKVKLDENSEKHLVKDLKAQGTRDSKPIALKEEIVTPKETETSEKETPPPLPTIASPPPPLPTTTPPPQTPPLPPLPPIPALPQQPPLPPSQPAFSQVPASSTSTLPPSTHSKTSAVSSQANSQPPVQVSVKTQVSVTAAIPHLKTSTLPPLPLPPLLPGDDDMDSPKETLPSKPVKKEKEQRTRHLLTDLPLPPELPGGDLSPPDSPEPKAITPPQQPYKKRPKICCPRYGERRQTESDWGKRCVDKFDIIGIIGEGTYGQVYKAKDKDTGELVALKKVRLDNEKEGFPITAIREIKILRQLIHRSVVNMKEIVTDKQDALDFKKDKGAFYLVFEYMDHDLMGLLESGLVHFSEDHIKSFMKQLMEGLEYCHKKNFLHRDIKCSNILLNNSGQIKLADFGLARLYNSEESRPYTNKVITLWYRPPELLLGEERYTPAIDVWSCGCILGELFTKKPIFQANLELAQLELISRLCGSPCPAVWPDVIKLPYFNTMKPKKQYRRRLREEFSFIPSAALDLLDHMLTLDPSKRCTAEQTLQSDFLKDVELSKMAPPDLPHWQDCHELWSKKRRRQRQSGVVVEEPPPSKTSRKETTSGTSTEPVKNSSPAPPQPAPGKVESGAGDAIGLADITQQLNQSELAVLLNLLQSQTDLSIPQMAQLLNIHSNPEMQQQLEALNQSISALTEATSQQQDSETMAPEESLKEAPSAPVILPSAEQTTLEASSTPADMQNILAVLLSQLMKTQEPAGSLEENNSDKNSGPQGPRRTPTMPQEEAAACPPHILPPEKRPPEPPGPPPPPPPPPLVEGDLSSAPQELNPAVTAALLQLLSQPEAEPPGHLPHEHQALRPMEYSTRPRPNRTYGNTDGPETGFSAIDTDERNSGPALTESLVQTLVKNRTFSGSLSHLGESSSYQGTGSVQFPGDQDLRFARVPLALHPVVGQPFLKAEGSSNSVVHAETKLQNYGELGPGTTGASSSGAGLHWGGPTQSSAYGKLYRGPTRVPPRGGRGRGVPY

Consider `O=C(O)C(F)(F)F.c1ccc2[nH]c(CNc3nc(N4CCOCC4)nc4c(-c5cncs5)cnn34)nc2c1` [Example 441, trifluoroacetic acid-N-[(1H-benzimidazol-2-yl)methyl]-2-(morpholin-4-yl)-8-(1,3-thiazol-5-yl)pyrazolo[1,5-a][1,3,5]triazin-4-amine (1/1)], for which, in test [1], the IC50 was 3.39 nM. For the same compound, the DC50 in test [2] is 2.25 nM.

For `CCc1cnn2c(NCc3nc4c(F)c(F)ccc4[nH]3)nc(N3CCOCC3)nc12` [Example 432, N-[(4,5-difluoro-1H-benzimidazol-2-yl)methyl]-8-ethyl-2-(morpholin-4-yl)pyrazolo[1,5-a][1,3,5]triazin-4-amine], in test [1], the IC50 came out at 1.76 nM. Further, in test [2], the DC50 was found to be 0.353 nM.

Turning to `CC1(C)CN(c2nc(NCc3nc4ccccc4[nH]3)n3ncc(Br)c3n2)CCO1` [Example 58, N-[(1H-benzimidazol-2-yl)methyl]-8-bromo-2-(2,2-dimethylmorpholin-4-yl)pyrazolo[1,5-a][1,3,5]triazin-4-amine], the IC50 in test [1] worked out at 49 nM. In test [2], the DC50 turned out to be 1.66 nM.

Take `CCc1cnn2c(NCc3nc4c(OC)cccc4[nH]3)nc(N3CCOCC3)nc12` [Example 433, 8-ethyl-N-[(4-methoxy-1H-benzimidazol-2-yl)methyl]-2-(morpholin-4-yl)pyrazolo[1,5-a][1,3,5]triazin-4-amine]: in test [1], the IC50 amounted to 10.6 nM. Besides, in test [2], the DC50 amounted to 0.441 nM.

For `CCc1cnn2c(NCc3nc4ccccc4[nH]3)nc(N3CCN(C)CC3)nc12` [Example 434, N-[(1H-benzimidazol-2-yl)methyl]-8-ethyl-2-(4-methylpiperazin-1-yl)pyrazolo[1,5-a][1,3,5] triazin-4-amine], the IC50 in test [1] was 10.5 nM. For the same compound, the DC50 in test [2] turned out to be 2.06 nM.

For `Fc1ccc2[nH]c(CNc3nc(N4CCOCC4)nc4c(-c5ccnnc5)cnn34)nc2c1F` [Example 417, N-[(4,5-difluoro-1H-benzimidazol-2-yl)methyl]-2-(morpholin-4-yl)-8-(pyridazin-4-yl)pyrazolo[1,5-a][1,3,5]triazin-4-amine], in test [1], the IC50 came out at 14.6 nM. In test [2], the DC50 came out at 1.25 nM.

Regarding `Fc1cccc(-c2nnc(CNc3nc(N4CCOCC4)nc4c(Br)cnn34)[nH]2)c1` [Example 44, 8-bromo-N-{[5-(3-fluorophenyl)-4H-1,2,4-triazol-3-yl]methyl}-2-(morpholin-4-yl)pyrazolo[1,5-a][1,3,5]triazin-4-amine], in test [1], the IC50 was found to be 2.95 nM. Moreover, the DC50 in test [2] amounted to 2.58 nM.

Turning to `CN1CCN(c2nc(NCc3nc4c(F)c(F)ccc4[nH]3)n3ncc(C4CC4(F)F)c3n2)CC1` (stereo not shown) [Example 429, N-[(4,5-difluoro-1H-benzimidazol-2-yl)methyl]-8-(2,2-difluorocyclopropyl)-2-(4-methylpiperazin-1-yl)pyrazolo[1,5-a][1,3,5]triazin-4-amine], the IC50 in test [1] is 7.47 nM. In test [2], the DC50 is 3.86 nM.

With `Clc1cc2nc(CNc3nc(N4CCOCC4)nc4c(-c5cncs5)cnn34)[nH]c2cc1Cl` [Example 443, N-[(5,6-dichloro-1H-benzimidazol-2-yl)methyl]-2-(morpholin-4-yl)-8-(1,3-thiazol-5-yl)pyrazolo[1,5-a][1,3,5]triazin-4-amine], in test [1], the IC50 came out at 2.21 nM. Also, the DC50 in test [2] worked out at 2.22 nM.

Turning to `CCc1cnn2c(NCc3nc4ccccc4[nH]3)nc(N3CCOCC3)nc12` [Example 431, N-[(1H-benzimidazol-2-yl)methyl]-8-ethyl-2-(morpholin-4-yl)pyrazolo[1,5-a][1,3,5]triazin-4-amine], the IC50 in test [1] was 4.17 nM. Moreover, in test [2], the DC50 turned out to be 1.74 nM.

Consider `Fc1cccc2[nH]c(CNc3nc(N4CCN5CCC4CC5)nc4c(C(F)(F)F)cnn34)nc12` [Example 410, 2-(1,4-diazabicyclo[3.2.2]nonan-4-yl)-N-[(4-fluoro-1H-benzimidazol-2-yl)methyl]-8-(trifluoromethyl)pyrazolo[1,5-a][1,3,5]triazin-4-amine], for which the IC50 in test [1] worked out at 3.42 nM. In addition, in test [2], the DC50 was found to be 0.453 nM.

`Fc1ccc2[nH]c(CNc3nc(N4CCOCC4)nc4c(C(F)(F)F)cnn34)nc2c1F` [Example 426, N-[(4,5-difluoro-1H-benzimidazol-2-yl)methyl]-2-(morpholin-4-yl)-8-(trifluoromethyl)pyrazolo [1,5-a][1,3,5]triazin-4-amine]: in test [1], the IC50 worked out at 3.21 nM. Besides, in test [2], the DC50 amounted to 0.511 nM.

In the case of `Clc1ccc(-c2nnc(CNc3nc(N4CCOCC4)nc4c(Br)cnn34)[nH]2)cc1` [Example 45, 8-bromo-N-{[5-(4-chlorophenyl)-4H-1,2,4-triazol-3-yl]methyl}-2-(morpholin-4-yl)pyrazolo[1,5-a][1,3,5]triazin-4-amine], the IC50 in test [1] was determined as 99 nM. Moreover, the DC50 in test [2] is 44.4 nM.

For `Cc1cnn2c(NCc3nc4c(F)c(F)ccc4[nH]3)nc(N(C)CC(C)(C)O)nc12` [Example 395, 1-[(4-{[(4,5-difluoro-1H-benzimidazol-2-yl)methyl]amino}-8-methylpyrazolo[1,5-a][1,3,5]triazin-2-yl)(methyl)amino]-2-methylpropan-2-ol], the IC50 in test [1] stood at 14.7 nM. In addition, the DC50 in test [2] was 0.884 nM.

In the case of `Cc1cnn2c(NCc3nc4c(F)c(F)ccc4[nH]3)nc(N3CCOCC3)nc12` [Example 392, N-[(4,5-difluoro-1H-benzimidazol-2-yl)methyl]-8-methyl-2-(morpholin-4-yl)pyrazolo[1,5-a][1,3,5]triazin-4-amine], the IC50 in test [1] was determined as 2.55 nM. For the same compound, the DC50 in test [2] was 0.519 nM.

Turning to `Fc1ccc2[nH]c(CNc3nc(N4CCN5CCC4CC5)nc4c(C(F)(F)F)cnn34)nc2c1F` [Example 407, 2-(1,4-diazabicyclo[3.2.2]nonan-4-yl)-N-[(4,5-difluoro-1H-benzimidazol-2-yl)methyl]-8-(trifluoromethyl)pyrazolo[1,5-a][1,3,5]triazin-4-amine], in test [1], the IC50 came to 1.6 nM. The DC50 in test [2] worked out at 0.643 nM.

As for `N#Cc1cnn2c(NCc3nc4ccccc4[nH]3)nc(N3CCOCC3)nc12` [Example 43, 4-{[(1H-benzimidazol-2-yl)methyl]amino}-2-(morpholin-4-yl)pyrazolo[1,5-a][1,3,5]triazine-8-carbonitrile], the IC50 in test [1] came out at 69.9 nM. Moreover, the DC50 in test [2] is 5.35 nM.

In the case of `CN(CC(C)(C)O)c1nc(NCc2nc3c(F)c(F)ccc3[nH]2)n2ncc(C(F)(F)F)c2n1` [Example 402, 1-{[4-{[(4,5-difluoro-1H-benzimidazol-2-yl)methyl]amino}-8-(trifluoromethyl)pyrazolo[1,5-a][1,3,5]triazin-2-yl](methyl)amino}-2-methylpropan-2-ol], the IC50 in test [1] is 3.81 nM. The DC50 in test [2] was found to be 1.78 nM.

In the case of `Brc1cnn2c(NCc3nnc(-c4ccccc4)[nH]3)nc(N3CCCCC3)nc12` [Example 49, 8-bromo-N-[(5-phenyl-4H-1,2,4-triazol-3-yl)methyl]-2-(piperidin-1-yl)pyrazolo[1,5-a][1,3,5]triazin-4-amine], the IC50 in test [1] is 69.2 nM. Also, the DC50 in test [2] was 5.34 nM.

As to `C[C@@H]1COCCN1c1nc(NCc2nc3ccccc3[nH]2)n2ncc(Br)c2n1` [Example 56, N-[(1H-benzimidazol-2-yl)methyl]-8-bromo-2-[(3R)-3-methylmorpholin-4-yl]pyrazolo[1,5-a][1,3,5]triazin-4-amine], the IC50 in test [1] was found to be 21.8 nM. Moreover, the DC50 in test [2] was determined as 2.19 nM.

For the compound `Fc1ccc2[nH]c(CNc3nc(N4CCOCC4)nc4c(CC(F)F)cnn34)nc2c1F.O=C(O)C(F)(F)F` [Example 425, trifluoroacetic acid N-[(4,5-difluoro-1H-benzimidazol-2-yl)methyl]-8-(2,2-difluoroethyl)-2-(morpholin-4-yl)pyrazolo[1,5-a][1,3,5]triazin-4-amine], in test [1], the IC50 worked out at 2.68 nM. Further, the DC50 in test [2] was determined as 0.545 nM.

In the case of `FC(F)(F)c1cccc(-c2nnc(CNc3nc(N4CCOCC4)nc4c(Br)cnn34)[nH]2)c1` [Example 52, 8-bromo-2-(morpholin-4-yl)-N-({5-[3-(trifluoromethyl)phenyl]-4H-1,2,4-triazol-3-yl}methyl)pyrazolo[1,5-a][1,3,5]triazin-4-amine], in test [1], the half-inhibitory concentration (IC50) worked out at 26 nM. In test [2], the DC50 was 2.83 nM.

For the compound `Cc1cccc(-c2nnc(CNc3nc(N4CCOCC4)nc4c(Br)cnn34)[nH]2)c1` [Example 40, 8-bromo-N-{[5-(3-methylphenyl)-4H-1,2,4-triazol-3-yl]methyl}-2-(morpholin-4-yl)pyrazolo[1,5-a][1,3,5]triazin-4-amine], the IC50 in test [1] turned out to be 14.6 nM. In addition, in test [2], the DC50 stood at 0.611 nM.

As to `OC[C@@H]1CCCCN1c1nc(NCc2nc3ccccc3[nH]2)n2ncc(Br)c2n1` [Example 59, [(2S)-1-(4-{[(1H-benzimidazol-2-yl)methyl]amino}-8-bromopyrazolo[1,5-a][1,3,5]triazin-2-yl)piperidin-2-yl]methanol], in test [1], the IC50 came to 30.5 nM. Besides, the DC50 in test [2] came to 2.85 nM.

In the case of `N#Cc1cccc(-c2c[nH]c(CNc3nc(N4CCOCC4)nc4c(Br)cnn34)n2)c1` [Example 42, 3-[2-({[8-bromo-2-(morpholin-4-yl)pyrazolo[1,5-a][1,3,5]triazin-4-yl]amino}methyl)-1H-imidazol-4-yl]benzonitrile], the IC50 in test [1] was 3.4 nM. The DC50 in test [2] worked out at 0.587 nM.

Regarding `C[C@H]1COCCN1c1nc(NCc2nc3ccccc3[nH]2)n2ncc(Br)c2n1` [Example 57, N-[(1H-benzimidazol-2-yl)methyl]-8-bromo-2-[(3S)-3-methylmorpholin-4-yl]pyrazolo[1,5-a][1,3,5]triazin-4-amine], the IC50 in test [1] is 1.52 nM. For the same compound, the DC50 in test [2] turned out to be 0.189 nM.

For the origin of these results see patent US20230117034A1, “PYRAZOLOTRIAZINES” (Bayer Aktiengesellschaft, priority 2019, published 2023).
